Assay results from patent US20250026721A1, “COMPOUNDS AND METHODS FOR MODULATING RAS-PI3K” (Vividion Therapeutics, Inc., priority 2023, published 2025).

Experiments:
[1] = test system: pAKT(S473) in H358 cell line; assay: In vitro Phospho-AKT(S473) HTRF analysis in H358 cells; format: cell-based; settings: for IC50 / Emax: Homo sapiens, NCI-H358, 0.5 h; for IC50: H358 cells, 30 minutes at 37° C.; for Emax: read-out: H358 pAKT Imax % control
Experimental: Example 5. In Vitro Phosgho-AKT(S473) Analysis
Functional activity of the compounds to inhibit pAKT were assessed in FaDu or H358 cell lines as indicated below.
• Complete Media • FBS, Corning catalog #35-010-CV • Anti-Anti, Gibco catalog #15240-062 • 96 well plate, Corning catalog #3610 • TrypLE, Gibco catalog #12604013 • Phospho-AKT(S473) HTRF kit, Cisbio catalog #64AKSPET
Cells were detached from the tissue culture flask with TrypLE. The cells were pelleted at 500×g for 5 min, TrypLe was removed and then resuspended in the necessary volume of media+1% FBS to give the appropriate cell density (17,500 cells/mL for FaDu; 20,000 cells/mL for H358). 100 μL of cell suspension/well was dispensed into the 96-well plate while keeping the outer wells of the plate free of cells and filled with PBS to prevent evaporation of interior wells. The plate was incubated at 37° C. and allowed to adhere overnight. The cells were treated with a dose response of compound and incubated at 37° C. for 30 minutes. The cells were then processed and pAKT(S473) levels were assessed following the specifications of the Cisbio HTRF kit.

[2] = test system: pAKT(S473) in FaDu cell line; assay: In vitro Phospho-AKT(S473) HTRF analysis in FaDu cells; format: cell-based; settings: for IC50 / Emax: Homo sapiens, 0.5 h; for IC50: FaDu cells, 30 minutes at 37° C.; for Emax: FaDu, read-out: FaDu pAKT Imax % control
Method in brief: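 FaDu or H358 cells were plated overnight in medium with 1% FBS, then exposed to a compound dose response for 30 minutes at 37° C. Phospho-AKT(S473) levels were measured by HTRF.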

[3] = target: T1, PIK3CA (Homo sapiens, UniProt P42336); assay: In vitro ELISA target engagement assay for PIK3CA in Jurkat cellular lysate (competition with PIK3CA Biotin Probe); format: binding; settings: 1 hour at rt, then 500 nM PIK3CA Biotin Probe, read-out: Elisa Target Engagement Assay (TE50)
T1 construct: endogenous in cells; host or cells: Jurkat cell lysate
T1 sequence (P42336 whole entry): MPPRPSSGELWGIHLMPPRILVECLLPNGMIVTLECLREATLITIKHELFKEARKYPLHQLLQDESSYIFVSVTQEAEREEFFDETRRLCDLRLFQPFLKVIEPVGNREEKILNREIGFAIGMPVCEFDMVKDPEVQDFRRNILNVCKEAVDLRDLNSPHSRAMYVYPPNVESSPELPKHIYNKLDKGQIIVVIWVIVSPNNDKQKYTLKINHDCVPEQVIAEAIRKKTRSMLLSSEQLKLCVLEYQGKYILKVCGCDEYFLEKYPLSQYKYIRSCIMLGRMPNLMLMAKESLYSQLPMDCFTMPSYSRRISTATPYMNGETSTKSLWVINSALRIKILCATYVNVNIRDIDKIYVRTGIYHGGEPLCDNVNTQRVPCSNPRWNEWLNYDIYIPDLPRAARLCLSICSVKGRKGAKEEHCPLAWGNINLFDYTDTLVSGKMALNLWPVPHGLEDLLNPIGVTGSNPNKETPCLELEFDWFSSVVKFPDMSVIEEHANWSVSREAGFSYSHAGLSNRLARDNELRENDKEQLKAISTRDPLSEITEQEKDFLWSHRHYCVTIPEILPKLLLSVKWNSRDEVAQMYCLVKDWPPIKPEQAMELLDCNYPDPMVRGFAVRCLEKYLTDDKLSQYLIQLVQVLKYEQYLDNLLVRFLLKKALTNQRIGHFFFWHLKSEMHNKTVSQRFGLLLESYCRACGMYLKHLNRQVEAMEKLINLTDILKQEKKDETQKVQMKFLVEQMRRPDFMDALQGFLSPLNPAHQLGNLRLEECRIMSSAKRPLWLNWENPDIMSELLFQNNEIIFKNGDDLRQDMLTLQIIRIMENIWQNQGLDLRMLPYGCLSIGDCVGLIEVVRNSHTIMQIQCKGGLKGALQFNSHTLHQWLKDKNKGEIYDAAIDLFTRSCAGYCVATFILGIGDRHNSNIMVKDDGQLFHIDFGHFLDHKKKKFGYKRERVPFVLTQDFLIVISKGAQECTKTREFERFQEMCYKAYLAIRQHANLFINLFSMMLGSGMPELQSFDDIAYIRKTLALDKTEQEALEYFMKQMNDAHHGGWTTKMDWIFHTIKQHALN
T1 sequence (P27986 whole entry partner): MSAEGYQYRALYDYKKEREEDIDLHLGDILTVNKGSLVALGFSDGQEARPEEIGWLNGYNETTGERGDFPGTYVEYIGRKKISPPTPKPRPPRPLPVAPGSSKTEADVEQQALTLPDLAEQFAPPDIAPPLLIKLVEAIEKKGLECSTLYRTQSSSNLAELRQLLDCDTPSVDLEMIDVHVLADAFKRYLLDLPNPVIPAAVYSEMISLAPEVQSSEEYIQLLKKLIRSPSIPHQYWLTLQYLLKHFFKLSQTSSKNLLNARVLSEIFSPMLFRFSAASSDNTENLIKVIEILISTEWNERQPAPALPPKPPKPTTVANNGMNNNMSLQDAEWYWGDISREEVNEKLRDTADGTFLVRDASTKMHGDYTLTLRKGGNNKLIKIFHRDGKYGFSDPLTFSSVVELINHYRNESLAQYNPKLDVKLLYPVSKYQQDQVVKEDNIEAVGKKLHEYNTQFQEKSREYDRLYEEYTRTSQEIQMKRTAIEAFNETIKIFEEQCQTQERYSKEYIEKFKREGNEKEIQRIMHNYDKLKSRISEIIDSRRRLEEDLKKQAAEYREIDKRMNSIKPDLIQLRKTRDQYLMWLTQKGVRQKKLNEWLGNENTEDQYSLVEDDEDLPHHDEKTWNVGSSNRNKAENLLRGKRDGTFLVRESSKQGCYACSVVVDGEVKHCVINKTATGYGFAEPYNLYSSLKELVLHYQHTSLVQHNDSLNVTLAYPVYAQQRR
Method in brief: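 Jurkat lysate from sonicated frozen cells was preincubated 1 h at rt with serially diluted compound up to 200 μM, then labelled 1 h at rt with PIK3CA biotin probe at 500 nM final. Probe-bound PIK3CA was captured on antibody-coated plates and detected with Neutravidin-HRP luminescence; TE50 derived from the dose response.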

[4] = target: T2, PIK3CA_C242 (Homo sapiens, UniProt P42336); assay: Proteomic TE50 (IA-DTB / TMT mass spectrometry) in Jurkat cell lysate; format: binding; settings: 1 hour at rt, 7-point dose response
T2 construct: endogenous in cells; host or cells: Jurkat cell lysate
T2 sequence (P42336 whole entry): as the sequence (P42336 whole entry) above
T2 sequence (P27986 whole entry partner): as the sequence (P27986 whole entry partner) above
Method in brief: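 Jurkat lysate (500 μg) treated with compound (7-point, 1:5 dilutions) for 1 h at rt, then labelled with 200 μM IA-DTB for 1 h. After digestion and streptavidin enrichment, the C242 peptide was quantified by targeted MS3 TMT. TE50 was derived from reporter-ion S/N dose-response curves.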

| Structure (SMILES) | IC50 [1] | Emax [1] | IC50 [2] | Emax [2] | IC50 [3] | absolute inhibition of pAKT ([1]; H358 cell line, internal standard, variation between runs) | absolute inhibition of pAKT ([2]; FaDu cell line, internal standard, variation between runs) | IC50 [4] |
| --- | --- | --- | --- | --- | --- | --- | --- | --- |
| C[C@H](/C=C\S(C)(=O)=O)NC(=O)[C@@]1(F)CCCN(C(=O)[C@H]2CN(Cc3ccccc3)C[C@H]2c2ccccc2Cl)CC1 (single isomer, unassigned) [Compound 305, (R)-1-((3*R,4*R)-1-benzyl-4-(2-chlorophenyl)pyrrolidine-3-carbonyl)-4-fluoro-N-((R,Z)-4-(methylsulfonyl)but-3-en-2-yl)azepane-4-carboxamide] | 0.396 µM | 90.7% | 0.428 µM | 94.3% | 0.65 µM | – | – | – |
| C[C@@H](/C=C\S(C)(=O)=O)NC(=O)C1(F)CCN(S(=O)(=O)c2cnc(C(F)(F)F)cc2-c2ccccc2Cl)CC1 [Compound 208, (S,Z)-1-((4-(2-chlorophenyl)-6-(trifluoromethyl)pyridin-3-yl)sulfonyl)-4-fluoro-N-(4-(methylsulfonyl)but-3-en-2-yl)piperidine-4-carboxamide] | 0.0816 µM | 95.9% | 0.0882 µM | – | 0.0537 µM | – | – | – |
| C[C@H](/C=C\S(C)(=O)=O)NC(=O)C1(F)CCN(S(=O)(=O)c2ccc(Br)cc2-c2ccccc2Cl)CC1 [Compound 47, 1-[4-bromo-2-(2-chlorophenyl)phenyl]sulfonyl-4-fluoro-N—[(Z,1R)-1-methyl-3-methylsulfonyl-allyl]piperidine-4-carboxamide] | – | – | 0.0965 µM | 100% | – | 40-89% | 43-98% | – |
| COc1ccc(Cl)c(-c2cc(Cl)ncc2S(=O)(=O)N2CCC(F)(C(=O)N[C@H](C)/C=C\S(C)(=O)=O)CC2)c1 [Compound 217, (R,Z)-1-((6-chloro-4-(2-chloro-5-methoxyphenyl)pyridin-3-yl)sulfonyl)-4-fluoro-N-(4-(methylsulfonyl)but-3-en-2-yl)piperidine-4-carboxamide] | 0.953 µM | 74.6% | – | – | 1.45 µM | – | – | 0.98 µM |
| C[C@H](/C=C\S(C)(=O)=O)NC(=O)[C@@]1(F)CCCN(C(=O)[C@H]2CN(CCC(F)(F)F)C[C@H]2c2ccccc2Cl)CC1 [Compound 196, (R)-1-((3R,4R)-4-(2-chlorophenyl)-1-(3,3,3-trifluoropropyl)pyrrolidine-3-carbonyl)-4-fluoro-N-((R,Z)-4-(methylsulfonyl)but-3-en-2-yl)azepane-4-carboxamide] | 0.329 µM | 96.3% | 0.45 µM | 86.4% | 0.53 µM | – | – | – |
| C[C@H](/C=C\S(C)(=O)=O)NC(=O)C1(F)CCN(C(=O)[C@H]2CCC(C)(C)C[C@@H]2c2ccccc2Cl)CC1 (racemic) [Compound 255, 1-((1*S,2*S)-2-(2-chlorophenyl)-4,4-dimethylcyclohexane-1-carbonyl)-4-fluoro-N-((R,Z)-4-(methylsulfonyl)but-3-en-2-yl)piperidine-4-carboxamide] | 0.067 µM | 86.7% | – | – | 0.43 µM | – | – | – |
| C[C@H]1C[C@](F)(C(=O)N[C@@H]2C=CS(=O)(=O)C2)CCN1C(=O)[C@@H]1CN(CC(C)(F)F)C[C@@H]1c1cccc(F)c1Cl (single isomer, unassigned) [Compound 225, (2*S,4*S)-1-((3*S,4*S)-4-(2-chloro-3-fluorophenyl)-1-(2,2-difluoropropyl)pyrrolidine-3-carbonyl)-N-((R)-1,1-dioxido-2,3-dihydrothiophen-3-yl)-4-fluoro-2-methylpiperidine-4-carboxamide] | 0.465 µM | 78.8% | – | – | 0.64 µM | – | – | – |
| C[C@H]1C[C@](F)(C(=O)N[C@@H]2C=CS(=O)(=O)C2)CCN1C(=O)[C@H]1CN(CC(C)(F)F)C[C@H]1c1ccccc1Cl (single isomer, unassigned) [Compound 221, (2*S,4*S)-1-((3R,4R)-4-(2-chlorophenyl)-1-(2,2-difluoropropyl)pyrrolidine-3-carbonyl)-N-((R)-1,1-dioxido-2,3-dihydrothiophen-3-yl)-4-fluoro-2-methylpiperidine-4-carboxamide] | 0.123 µM | 85% | – | – | 0.21 µM | – | – | – |
| C[C@H](/C=C\S(C)(=O)=O)NC(=O)[C@@]1(F)CCCN(C(=O)[C@H]2CN(CC(C)(F)F)C[C@H]2c2c(F)cccc2Cl)CC1 (single isomer, unassigned) [Compound 183] | 0.0566 µM | 93.2% | – | – | 0.078 µM | – | – | – |
| C[C@H](/C=C\S(C)(=O)=O)NC(=O)[C@@]1(F)CCCN(C(=O)[C@H]2CN(CC3(F)CC3)C[C@H]2c2ccccc2Cl)CC1 [Compound 185, (R)-1-((3R,4R)-4-(2-chlorophenyl)-1-((1-fluorocyclopropyl)methyl)pyrrolidine-3-carbonyl)-4-fluoro-N-((R,Z)-4-(methylsulfonyl)but-3-en-2-yl)azepane-4-carboxamide] | 0.123 µM | 95.6% | – | – | 0.29 µM | – | – | – |
| C[C@H](/C=C/S(C)(=O)=O)NC(=O)[C@@]1(F)CCCN(C(=O)[C@H]2CN(CC(F)(F)F)C[C@H]2c2c(F)cccc2Cl)CC1 [Compound 296, (R)-1-((3R,4R)-4-(2-chloro-6-fluorophenyl)-1-(2,2,2-trifluoroethyl)pyrrolidine-3-carbonyl)-4-fluoro-N-((R,E)-4-(methylsulfonyl)but-3-en-2-yl)azepane-4-carboxamide] | 0.642 µM | 69.4% | – | – | 0.4 µM | – | – | – |
| Cc1ccccc1[C@@H]1CN(CC(F)(F)F)C[C@@H]1C(=O)N1CCC[C@](F)(C(=O)N[C@H](C)/C=C\S(C)(=O)=O)CC1 (single isomer, unassigned) [Compound 224, (R)-4-fluoro-N-((R,Z)-4-(methylsulfonyl)but-3-en-2-yl)-1-((3*R,4*R)-4-(o-tolyl)-1-(2,2,2-trifluoroethyl)pyrrolidine-3-carbonyl) azepane-4-carboxamide] | 0.326 µM | 81.2% | – | – | 0.52 µM | – | – | – |
| C[C@H](/C=C\S(C)(=O)=O)NC(=O)[C@@]1(F)CCCN(C(=O)[C@@H]2CN(CC(C)(F)F)C[C@@H]2c2cccc(F)c2Cl)CC1 (single isomer, unassigned) [Compound 222, (R)-1-((3*S,4*S)-4-(2-chloro-3-fluorophenyl)-1-(2,2-difluoropropyl)pyrrolidine-3-carbonyl)-4-fluoro-N-((R,Z)-4-(methylsulfonyl)but-3-en-2-yl)azepane-4-carboxamide] | 0.146 µM | 91% | – | – | 0.21 µM | – | – | – |
| C[C@H](/C=C\S(C)(=O)=O)NC(=O)[C@@]1(F)CCCN(C(=O)N2CCN(CC(F)(F)F)C[C@H]2c2ccccc2Cl)CC1 (single isomer, unassigned) [Compound 309, (R)-1-((*R)-2-(2-chlorophenyl)-4-(2,2,2-trifluoroethyl)piperazine-1-carbonyl)-4-fluoro-N—((R,Z)-4-(methylsulfonyl)but-3-en-2-yl)azepane-4-carboxamide] | 0.276 µM | 91.8% | – | – | 0.39 µM | – | – | – |
| C[C@H](/C=C\S(C)(=O)=O)NC(=O)[C@@]1(F)CCCN(C(=O)[C@H]2CN(CC(F)(F)F)C[C@H]2c2cccc(F)c2F)CC1 (single isomer, unassigned) [Compound 173, (R)-1-((3*R,4*R)-4-(2,3-difluorophenyl)-1-(2,2,2-trifluoroethyl)pyrrolidine-3-carbonyl)-4-fluoro-N-((R,Z)-4-(methylsulfonyl)but-3-en-2-yl)azepane-4-carboxamide] | 0.464 µM | 85.5% | – | – | 0.54 µM | – | – | – |
| C[C@H](/C=C\S(C)(=O)=O)NC(=O)[C@@]1(F)CCCCN(C(=O)[C@H]2CN(CC(F)(F)F)C[C@H]2c2ccccc2Cl)CC1 (single isomer, unassigned) [Compound 272, (*R)-1-((3R,4R)-4-(2-chlorophenyl)-1-(2,2,2-trifluoroethyl)pyrrolidine-3-carbonyl)-4-fluoro-N-((R,Z)-4-(methylsulfonyl)but-3-en-2-yl)azocane-4-carboxamide] | 0.694 µM | 89.8% | – | – | 0.88 µM | – | – | – |
| C[C@H](/C=C\S(C)(=O)=O)NC(=O)C1(F)CCN(C(=O)[C@H]2CN(CC(C)(F)F)C[C@H]2c2ccccc2Cl)CC1 [Compound 179, 1-((3R,4R)-4-(2-chlorophenyl)-1-(2,2-difluoropropyl)pyrrolidine-3-carbonyl)-4-fluoro-N-((R,Z)-4-(methylsulfonyl)but-3-en-2-yl)piperidine-4-carboxamide] | 0.165 µM | 106% | – | – | 0.39 µM | – | – | – |
